According to US12077503B2, “Substituted cyclic amides and their use as herbicides” (FMC CORPORATION, priority 2015, dated 2024):

Key:
Type in all cases: in vivo
[1] = test system: barnyardgrass (Echinochloa crus-galli); experiment: Test B flooded paddy test; details: Echinochloa crus-galli, 250 g ai/ha, Flood; 0 to 100 scale where 0 is no effect and 100 is complete control; read-out: Barnyardgrass plant response rating
How it was run: (§1)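 Compound goes directly into floodwater once pots are flooded 3 cm above soil, targeting plants at two leaves; the water depth is then held for the test duration. Plants sit 13–15 d in a greenhouse and are rated visually, 100 denoting complete control.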

[2] = test system: sedge, umbrella (small-flower umbrella sedge, Cyperus difformis); experiment: Test B flooded paddy test; details: Cyperus difformis, 250 g ai/ha, Flood; 0 to 100 scale where 0 is no effect and 100 is complete control; read-out: Sedge, Umbrella plant response rating
How it was run: as §1

[3] = test system: rice (Oryra sativa); experiment: Test B flooded paddy test; details: Oryza sativa, 250 g ai/ha, Flood; 0 to 100 scale where 0 is no effect and 100 is complete control; read-out: Rice plant response rating
How it was run: as §1

[4] = test system: ducksalad (Heteranthera limosa); experiment: Test B flooded paddy test; details: Heteranthera limosa, 250 g ai/ha, Flood; 0 to 100 scale where 0 is no effect and 100 is complete control; read-out: Ducksalad plant response rating
How it was run: as §1

[5] = test system: barnyardgrass (Echinochloa crus-galli); experiment: Test A postemergence; details: Echinochloa crus-galli, post-emergence, 240 h, read-out: Plant response rating, Barnyardgrass
How it was run: (§2)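 Each rating is a visual injury score from 0 to 100 given about 10 d after treatment, judged against untreated controls kept alongside in the greenhouse. In loam soil–sand blend, seeds got a preemergence directed soil spray, while postemergence plants were 2 to 10 cm tall at spraying.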

[6] = test system: ragweed (common ragweed, Ambrosia elatior); experiment: Test A postemergence; details: Ambrosia artemisiifolia, post-emergence, 240 h, read-out: Plant response rating, Ragweed
How it was run: as §2

[7] = test system: pigweed (Amaranthus retroflexus); experiment: Test A postemergence; details: Amaranthus retroflexus, post-emergence, 240 h, read-out: Plant response rating, Pigweed
How it was run: as §2

[8] = test system: giant foxtail (Setaria faberii); experiment: Test A postemergence; details: Setaria faberi, post-emergence, 240 h, read-out: Plant response rating, Foxtail, Giant
How it was run: as §2

[9] = test system: Kochia (Kochia scoparia); experiment: Test A postemergence; details: Bassia scoparia, post-emergence, 240 h, read-out: Plant response rating, Kochia
How it was run: as §2

[10] = test system: blackgrass (Alopecurus myosuroides); experiment: Test A postemergence; details: Alopecurus myosuroides, post-emergence, 240 h, read-out: Plant response rating, Blackgrass
How it was run: as §2

[11] = test system: ryegrass, Italian (Italian ryegrass, Lolium multiflorum); experiment: Test A postemergence; details: Lolium multiflorum, post-emergence, 240 h, read-out: Plant response rating, Ryegrass, Italian
How it was run: as §2

[12] = test system: corn (Zea mays); experiment: Test A postemergence; details: Zea mays, post-emergence, 240 h
How it was run: as §2

[13] = test system: wheat (Triticum aestivum); experiment: Test A postemergence; details: Triticum aestivum, post-emergence, 240 h, read-out: Plant response rating, Wheat
How it was run: as §2

[14] = test system: Galium (catchweed bedstraw, Galium aparine); experiment: Test A postemergence; details: Galium, post-emergence, 240 h, read-out: Plant response rating, Galium
How it was run: as §2

[15] = test system: barnyardgrass (Echinochloa crus-galli); experiment: Test A preemergence; details: Echinochloa crus-galli, pre-emergence, 240 h
How it was run: as §2

[16] = test system: ragweed (common ragweed, Ambrosia elatior); experiment: Test A preemergence; details: Ambrosia artemisiifolia, pre-emergence, 240 h
How it was run: as §2

[17] = test system: pigweed (Amaranthus retroflexus); experiment: Test A preemergence; details: Amaranthus retroflexus, pre-emergence, 240 h
[18] = test system: giant foxtail (Setaria faberii); experiment: Test A preemergence; details: Setaria faberi, pre-emergence, 240 h
How it was run: as §2

[19] = test system: Kochia (Kochia scoparia); experiment: Test A preemergence; details: Bassia scoparia, pre-emergence, 240 h
How it was run: as §2

[20] = test system: ryegrass, Italian (Italian ryegrass, Lolium multiflorum); experiment: Test A preemergence; details: Lolium multiflorum, pre-emergence, 240 h
How it was run: as §2

[21] = 125 g ai/ha, Postemergence, visual injury after approximately 10 d, 0 to 100 scale where 0 is no effect and 100 is complete control
[22] = 500 g ai/ha, postemergence, visual injury, 0 to 100 scale (0 no effect, 100 complete control), approx. 10 d

## COc1ccc([C@H]2CN(C)C(=O)[C@@H]2C(=O)Nc2ccccc2F)cc1F [Compound 1020]
[1]
  pest or weed control at 250 g/ha: 75%
[2]
  pest or weed control at 250 g/ha: 0%
[3]
  pest or weed control at 250 g/ha: 20%
[4]
  pest or weed control at 250 g/ha: 90%
[5]; [21]
  pest or weed control at 125 g/ha: 90%
[5]; [22]
  pest or weed control at 500 g/ha: 90%
[6]; [21]
  pest or weed control at 125 g/ha: 0%
[6]; [22]
  pest or weed control at 500 g/ha: 0%
[7]; [21]
  pest or weed control at 125 g/ha: 30%
[7]; [22]
  pest or weed control at 500 g/ha: 30%
[8]; [21]
  pest or weed control at 125 g/ha: 90%
[8]; [22]
  pest or weed control at 500 g/ha: 90%
[9]; [21]
  pest or weed control at 125 g/ha: 50%
[9]; [22]
  pest or weed control at 500 g/ha: 50%
[10]; [21]
  pest or weed control at 125 g/ha: 0%
[10]; [22]
  pest or weed control at 500 g/ha: 20%
[11]; [21]
  pest or weed control at 125 g/ha: 30%
[11]; [22]
  pest or weed control at 500 g/ha: 30%
[12]; [21]
  Corn plant response rating (crop injury, 0 = no effect, 100 = complete kill) at 125 g/ha: 0%
[12]; [22]
  Corn plant response rating (crop injury, 0 = no effect, 100 = complete kill) at 500 g/ha: 30%
[13]; [21]
  plant injury at 125 g/ha: 0%
[13]; [22]
  plant injury at 500 g/ha: 30%
[14]; [21]
  pest or weed control at 125 g/ha: 40%
[14]; [22]
  pest or weed control at 500 g/ha: 60%
[15]; 125 g ai/ha, Preemergence, visual injury rating after approximately 10 d, read-out: Barnyardgrass plant response rating (0 to 100 scale, 0 is no effect, 100 is complete control)
  pest or weed control at 125 g/ha: 90%
[15]; 500 g ai/ha, preemergence, visual injury rating about 10 d after treatment, 0 to 100 scale (0 no effect, 100 complete control), read-out: Barnyardgrass plant response rating
  pest or weed control at 500 g/ha: 90%
[16]; 125 g ai/ha, Preemergence, visual injury rating after approximately 10 d, read-out: Ragweed plant response rating (0 to 100 scale, 0 is no effect, 100 is complete control)
  pest or weed control at 125 g/ha: 0%
[16]; 500 g ai/ha, preemergence, visual injury rating about 10 d after treatment, 0 to 100 scale (0 no effect, 100 complete control), read-out: Ragweed plant response rating
  pest or weed control at 500 g/ha: 20%
[17]; 125 g ai/ha, Preemergence, visual injury rating after approximately 10 d, read-out: Pigweed plant response rating (0 to 100 scale, 0 is no effect, 100 is complete control)
  pest or weed control at 125 g/ha: 30%
[17]; 500 g ai/ha, preemergence, visual injury rating about 10 d after treatment, 0 to 100 scale (0 no effect, 100 complete control), read-out: Pigweed plant response rating
  pest or weed control at 500 g/ha: 40%
[18]; 125 g ai/ha, Preemergence, visual injury rating after approximately 10 d, read-out: Foxtail, Giant plant response rating (0 to 100 scale, 0 is no effect, 100 is complete control)
  pest or weed control at 125 g/ha: 90%
[18]; 500 g ai/ha, preemergence, visual injury rating about 10 d after treatment, 0 to 100 scale (0 no effect, 100 complete control), read-out: Foxtail, Giant plant response rating
  pest or weed control at 500 g/ha: 90%
[19]; 125 g ai/ha, Preemergence, visual injury rating after approximately 10 d, read-out: Kochia plant response rating (0 to 100 scale, 0 is no effect, 100 is complete control)
  pest or weed control at 125 g/ha: 30%
[19]; 500 g ai/ha, preemergence, visual injury rating about 10 d after treatment, 0 to 100 scale (0 no effect, 100 complete control), read-out: Kochia plant response rating
  pest or weed control at 500 g/ha: 20%
[20]; 125 g ai/ha, Preemergence, visual injury rating after approximately 10 d, read-out: Ryegrass, Italian plant response rating (0 to 100 scale, 0 is no effect, 100 is complete control)
  pest or weed control at 125 g/ha: 0%
[20]; 500 g ai/ha, preemergence, visual injury rating about 10 d after treatment, 0 to 100 scale (0 no effect, 100 complete control), read-out: Ryegrass, Italian plant response rating
  pest or weed control at 500 g/ha: 30%
